{"source": "patent US10011570B2", "about": "“Nucleic acid binding dyes with improved safety” (Biotium, Inc., priority 2013, dated 2018)", "key": {"[1]": {"assay": "California Title 22 toxicity test for hazardous waste characterization", "assay_type": "in vivo, Pimephales promelas", "conditions": "Pimephales promelas (fathead minnow), in vivo; 0.65 uM dye solution in water tested at 750, 500 and 250 mg/L, Fathead minnow; read-out: median lethal concentration (LC50)", "protocol": "(§1) Stock solutions of Dye No. 11 and Dye No. 4 at 0.65 uM each in water were submitted to Nautilus Environmental (San Diego, Calif.) for California Title 22 toxicity testing for hazardous waste characterization. The solutions were tested at 750, 500, and 250 mg/L plus lab control in Pimephales promelas (Fathead minnow) in two replicates of 10 fish each according to the California Department of Fish and Game 1988 Acute Procedures."}, "[2]": {"test_system": "Pimephales promelas (Fathead minnow)", "assay": "California Title 22 toxicity test for hazardous waste characterization", "assay_type": "in vivo", "conditions": "0.65 uM dye solution in water, aquatic life", "protocol": "as §1"}, "[3]": {"test_system": "HeLa cells", "assay": "Live cell staining (cell membrane permeability, confocal microscopy)", "assay_type": "cell-based, human", "conditions": "for cell staining after 5 minutes incubation / cell staining after 30 minutes incubation: HeLa cells, 37 C, dyes at 0.65 uM, Sybr Safe at 1×; for cellular staining of live cells (cell membrane permeability): normal working concentration used in gel staining, time not stated (FIG. 12)", "protocol": "Dye No. 4, Dye No. […] and SYBR Safe are tested for their cell membrane permeability. HeLa cells were incubated with 1× Sybr Safe, 0.65 uM Dye No 4 and 0.65 uM Dye No. 11 in cell culture medium at 37 C. Hoechst 33342 (1 ug/mL) was included to stain DNA with blue fluorescence. Cells were imaged after 5 minutes and 30 minutes incubation on the appropriate fluorescence channel (FITC for Sybr Safe and Dye No. 4, and Cy3 for Dye No. […]) on a Zeiss LSM 700 confocal microscope. […] Hoechst staining for the same microscopic field is shown below each image (D-F, J-L)."}, "[4]": {"test_system": "1 kb DNA ladder in 1% agarose gel", "assay": "Post staining of agarose gels", "conditions": "0.65 uM dye in water, 30 minutes, 1 kb DNA ladder 200-25 ng per lane", "protocol": "Two-fold dilutions of 1 kb DNA ladder (Biotium, 200 ng-25 ng) or low-molecular weight DNA ladder (NEB, 50-12.5 ng/lane) were separated on 1% agarose/1×TBE gels in 1× TBE at 110 V for 90 minutes. Gels were post-stained with dyes at indicated concentrations in 50 mL staining solution with rocking for 30 minutes at room temperature, protected from light. The staining solutions were prepared by adding a dye stock solution in DMSO to water. […] In particular, dyes of the invention can readily penetrate dense polyacrylamide gels. […] Use of low dye concentration in the staining, coupled with the dyes' low cell membrane permeability (See below), makes the dyes safer to handle. Compound 25 of U.S. Pat. No. 7,446,202 is an asymmetric cyanine dye comprising a negatively charged substituent. The dye is described to be a sensitive dsDNA binding dye useful for selective dsDNA quantitation in solution. In this experiment, this dye is compared with the asymmetric cyanine dye Dye No. 4 of the present invention in detecting dsDNA in agarose gel. 1 kb DNA ladder (Biotium) was loaded on a 1% agarose/1×TBE gel at 200, 100, 50, or 25 ng per lane in duplicate and separated by electrophoresis at 100V. […]"}, "[5]": {"test_system": "Calf Thymus DNA; RNA", "assay": "Nucleic acid detection in solution (fluorescence titration)", "assay_type": "binding", "conditions": "2 uM Dye No. 4 or 1.3 uM Compound 25 in TE buffer, fluorescence microplate reader", "protocol": "Compound 25 of U.S. Pat. No. 7,446,202 and Dye No. 4 were compared in nucleic acid detection in solution. Calf Thymus DNA (Sigma) was used to titrate 2 uM Dye No. 4 or 1.3 uM Compound 25 of U.S. Pat. No. 7,446,202 in TE buffer. The fluorescence of the solution was measured on a fluorescence microplate reader (200 uL volume/well and 5 minutes incubation time). Same optical setting was used for both dyes as the two dyes have nearly identical spectral profile."}, "[6]": {"test_system": "1 kb DNA ladder in 1% agarose TBE gels", "assay": "Prestaining of agarose gels", "conditions": "dye mixed with DNA in loading buffer, compared with propidium iodide", "protocol": "Two-fold dilutions of 1 kb DNA ladder (200 ng-25 ng per lane) were mixed with propidium iodide (PI) or Dye No, 10 in DNA loading buffer at the final concentrations indicated and separated on 1% agarose TBE gels containing no additional DNA dye."}}, "data": [{"smiles": "C[n+]1c(C=C2C=CN(CCCSCC(N)C(=O)[O-])c3ccccc32)sc2ccccc21.I", "note": "(stereo not shown) [Dye No. 4]", "values": [{"measurement": "LC50", "setting": "[1]", "result": "> 750", "unit": "µg/mL"}, {"measurement": "classification under CCR Title 22 regulations", "setting": "[2]", "result": "non-hazardous"}, {"measurement": "cell staining after 5 minutes incubation", "setting": "[3]", "result": "no staining was detectable"}, {"measurement": "cell staining after 30 minutes incubation", "setting": "[3]", "result": "no staining was detectable"}, {"measurement": "cellular staining of live cells (cell membrane permeability)", "setting": "[3]", "result": "did not produce any cellular staining at all"}, {"measurement": "signal of stained gel compared with Compound 25", "setting": "[4]", "result": "significantly higher signal"}, {"measurement": "nucleic acid binding profile (dsDNA versus RNA)", "setting": "[5]", "result": "binds to both dsDNA and RNA"}]}, {"smiles": "CC[N+](C)(CC)CCC[n+]1c(-c2ccc(S(=O)(=O)[O-])cc2)c2cc(N)ccc2c2ccc(N)cc21.[I-]", "note": "[Dye No. 10]", "values": [{"measurement": "brightness in prestaining of gels", "setting": "[6]", "result": "as bright as PI"}]}, {"smiles": "C[N+](C)(C)CCC[n+]1c(-c2ccc(S(=O)(=O)[O-])cc2)c2cc(N)ccc2c2ccc(N)cc21.[I-]", "note": "[Dye No. 11]", "values": [{"measurement": "LC50", "setting": "[1]", "result": "> 750", "unit": "µg/mL"}, {"measurement": "classification under CCR Title 22 regulations", "setting": "[2]", "result": "non-hazardous"}, {"measurement": "cell staining after 5 minutes incubation", "setting": "[3]", "result": "no staining was detectable"}, {"measurement": "cell staining after 30 minutes incubation", "setting": "[3]", "result": "no staining was detectable"}, {"measurement": "cellular staining of live cells (cell membrane permeability)", "setting": "[3]", "result": "did not produce any cellular staining at all"}]}]}
